What follows are molecules tested against T1, BACE1 enzyme (Homo sapiens, UniProt P56817) (assay: BACE1 Cell-Free Assay (fluorescence polarization, cleavage of synthetic APP substrate)). Details: geometric mean of 2-4 determinations unless otherwise indicated (b: ≥5 determinations; c: single determination); 0.1 nM BACE1, 150 nM peptide substrate, pH 4.5, 3 hours at 37° C.
T1 construct: transfected with a soluble BACE construct (BACE1deltaTM96His); His (C); made in house; host or cells: CHO-K1 cells (secreted into conditioned media)
Type: biochemical
Description: BACE1 Cell-Free Assay: Beta-secretase (BACE) is one of the enzymes involved in the generation of the amyloid beta peptide found in the amyloid plaques of Alzheimer's disease patients. This assay measures the inhibition of the beta-secretase enzyme as it cleaves a non-native peptide.
A synthetic APP substrate that can be cleaved by beta-secretase having N-terminal biotin and made fluorescent by the covalent attachment of Oregon Green at the Cys residue is used to assay beta-secretase activity in the presence or absence of the inhibitory compounds. The substrate is Biotin-GLTNIKTEEISEISY^EVEFR-C[Oregon Green]KK-OH. The BACE1 enzyme is affinity purified material from conditioned media of CHO-K1 cells that have been transfected with a soluble BACE construct (BACE1deltaTM96His). Compounds are incubated in a ½ log dose response curve from a top concentration of 100 μM with BACE1 enzyme and the biotinylated fluorescent peptide in 384-well black plates (Thermo Scientific #4318). BACE1 is at a final concentration of 0.1 nM with a final concentration of peptide substrate of 150 nM in a reaction volume of 30 μL assay buffer [100 mM sodium acetate, pH 4.5 (brought to pH with acetic acid), and 0.001% Tween-20]. Plates are covered and incubated for 3 hours at 37° C. The reaction is stopped with the addition of 30 μL of 1.5 μM Streptavidin (Pierce, #21125). After a 10 minute incubation at room temperature, plates are read on a PerkinElmer EnVision for fluorescence polarization (Ex485 nm/Em530 nm). The activity of the beta-secretase enzyme is detected by changes in the fluorescence polarization that occur when the substrate is cleaved by the enzyme.

T1 sequence (P56817 46-457 limits assumed): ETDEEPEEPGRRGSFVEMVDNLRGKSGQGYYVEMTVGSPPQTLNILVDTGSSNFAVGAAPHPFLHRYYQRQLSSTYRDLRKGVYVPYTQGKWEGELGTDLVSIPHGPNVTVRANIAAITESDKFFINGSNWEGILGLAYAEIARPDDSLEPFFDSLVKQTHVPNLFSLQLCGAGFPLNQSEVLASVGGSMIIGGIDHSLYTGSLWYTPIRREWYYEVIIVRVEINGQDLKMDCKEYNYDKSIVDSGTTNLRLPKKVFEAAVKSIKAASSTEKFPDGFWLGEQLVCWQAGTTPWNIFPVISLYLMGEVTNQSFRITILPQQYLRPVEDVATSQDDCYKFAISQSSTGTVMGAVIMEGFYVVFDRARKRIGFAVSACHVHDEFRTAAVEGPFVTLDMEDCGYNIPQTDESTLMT

| Compound | IC50 [µM] |
| --- | --- |
| CC#CCOc1ccc(C(=O)Nc2csc([C@]34COC(C)(C)C[C@H]3CSC(N)=N4)n2)nc1 (single isomer, unassigned) [Example 2] | 0.088 |
| NC1=N[C@@]2(c3nc(NC(=O)c4ccc(OC(F)F)cn4)cs3)COC3(CCC3)C[C@H]2CS1 (single isomer, unassigned) [Example 5, N-{2-[(4a′R,8a′R)-2′-amino-4a′,5′-dihydro-4′H-spiro[cyclobutane-1,6′-pyrano[3,4-d] [1,3]thiazin]-8a′(8′H)-yl]-1,3-thiazol-4-yl}-5-(difluoromethoxy)pyridine-2-carboxamide] | 0.138 |
| CC1(C)C[C@@H]2CSC(N)=N[C@]2(c2nc(NC(=O)c3ccn(C(F)F)n3)cs2)CO1 (single isomer, unassigned) [Example 11] | 6.96 |
| CC1(C)C[C@H]2CSC(N)=N[C@@]2(c2nc(NC(=O)c3ccn(C(F)F)n3)cs2)CO1 (single isomer, unassigned) [Example 12] | 0.022 |
| CC1(C)C[C@H]2CSC(N)=N[C@@]2(c2nc(NC(=O)c3cnc(OC(F)F)cn3)cs2)CO1 (single isomer, unassigned) [Example 14] | 0.167 |
| CC1(C)C[C@@H]2CSC(N)=N[C@]2(c2nc(NC(=O)c3ccc(OC(F)F)cn3)cs2)CO1 (single isomer, unassigned) [Example 15] | 22.2 |
| CC(F)(F)Oc1ccc(C(=O)Nc2csc([C@@]34COC(C)(C)C[C@@H]3CSC(N)=N4)n2)nc1 (single isomer, unassigned) [Example 16] | 28.5 |
| CC(F)(F)Oc1ccc(C(=O)Nc2csc([C@]34COC(C)(C)C[C@H]3CSC(N)=N4)n2)nc1 (single isomer, unassigned) [Example 17] | 0.416 |
| CC(F)(F)COc1cnc(C(=O)Nc2csc([C@]34COC(C)(C)C[C@H]3CSC(N)=N4)n2)cn1 (single isomer, unassigned) [Example 19] | 0.421 |
| CC#CCOc1cnc(C(=O)Nc2csc([C@@]34COC(C)(C)C[C@@H]3CSC(N)=N4)n2)cn1 (single isomer, unassigned) [Example 20] | 15.5 |
| CC1(C)C[C@@H]2CSC(N)=N[C@]2(c2nc(NC(=O)c3coc(CF)n3)cs2)CO1 (single isomer, unassigned) [Example 22] | 15.1 |
| CC1(C)C[C@H]2CSC(N)=N[C@@]2(c2nc(NC(=O)c3coc(CF)n3)cs2)CO1 (single isomer, unassigned) [Example 23] | 0.017 |
| NC1=N[C@]2(c3nc(NC(=O)c4ccc(OC(F)F)cn4)cs3)COC3(CC3)C[C@@H]2CS1 (single isomer, unassigned) [Example 38, N-{2-[(4a′S,8a′S)-2′-amino-4a′,5′-dihydro-4′H-spiro[cyclopropane-1,6′-pyrano[3,4-d][1,3]thiazin]-8a′(8′H)-yl]-1,3-thiazol-4-yl}-5-(difluoromethoxy)pyridine-2-carboxamide] | 34.5 |
| CC1(C)C[C@H]2CSC(N)=N[C@@]2(c2nc(NC(=O)c3ccc(OC(F)F)cn3)cs2)CO1 [Example 7, N-{2-[(4aR,8aR)-2-amino-6,6-dimethyl-4,4a,5,6-tetrahydropyrano[3,4-d][1,3]thiazin-8a(8H)-yl]-1,3-thiazol-4-yl}-5-(difluoromethoxy)pyridine-2-carboxamide] | 0.116 |
| COC[C@@]1(C)C[C@H]2CSC(N)=N[C@@]2(c2nc(NC(=O)c3ccc(OC(F)F)cn3)cs2)CO1 [Example 9, N-{2-[(4aR,6R,8aR)-2-amino-6-(methoxymethyl)-6-methyl-4,4a,5,6-tetrahydropyrano[3,4-d][1,3]thiazin-8a(8H)-yl]-1,3-thiazol-4-yl}-5-(difluoromethoxy) pyridine-2-carboxamide] | 0.105 |
| NC1=N[C@@]2(c3nc(NC(=O)c4ccc(OC(F)F)cn4)cs3)COC(CF)(CF)C[C@H]2CS1 [Example 10, N-{2-[(4aR,8aR)-2-amino-6,6-bis(fluoromethyl)-4,4a,5,6-tetrahydropyrano[3,4-d][1,3]thiazin-8a(8H)-yl]-1,3-thiazol-4-yl}-5-(difluoromethoxy)pyridine-2-carboxamide] | 0.565 |
| CC[C@]1(C)C[C@H]2CSC(N)=N[C@@]2(c2nc(NC(=O)c3ccc(OC(F)F)cn3)cs2)CO1 [Example 27, N-{2-[(4aR,6R,8aR)-2-amino-6-ethyl-6-methyl-4,4a,5,6-tetrahydropyrano[3,4-d][1,3]thiazin-8a(8H)-yl]-1,3-thiazol-4-yl}-5-(difluoromethoxy)pyridine-2-carboxamide] | 1.83 |

Now from value to molecule:

| IC50 [µM] | Compound |
| --- | --- |
| 0.252 | NC1=N[C@@]2(c3nc(NC(=O)c4ccc(OC(F)F)cn4)cs3)COC3(CCC3)C[C@H]2CS1 (racemic) [Example 3, N-{2-[cis-2′-amino-4a′,5′-dihydro-4′H-spiro[cyclobutane-1,6′-pyrano[3,4-d][1,3]thiazin]-8a′(8′H)-yl]-1,3-thiazol-4-yl}-5-(difluoromethoxy)pyridine-2-carboxamide] |
| 31 | CC#CCOc1ccc(C(=O)Nc2csc([C@@]34COC(C)(C)C[C@@H]3CSC(N)=N4)n2)nc1 (single isomer, unassigned) [Example 1] |
| > 21.1 | NC1=N[C@]2(c3nc(NC(=O)c4ccc(OC(F)F)cn4)cs3)COC3(CCC3)C[C@@H]2CS1 (single isomer, unassigned) [Example 4, N-{2-[(4a′S,8a′S)-2′-amino-4a′,5′-dihydro-4′H-spiro[cyclobutane-1,6′-pyrano[3,4-d] [1,3]thiazin]-8a′(8′H)-yl]-1,3-thiazol-4-yl}-5-(difluoromethoxy)pyridine-2-carboxamide] |
| 7.95 | CC1(C)C[C@@H]2CSC(N)=N[C@]2(c2nc(NC(=O)c3cnc(OC(F)F)cn3)cs2)CO1 (single isomer, unassigned) [Example 13] |
| 61.7 | CC(F)(F)COc1cnc(C(=O)Nc2csc([C@@]34COC(C)(C)C[C@@H]3CSC(N)=N4)n2)cn1 (single isomer, unassigned) [Example 18] |
| 0.041 | CC#CCOc1cnc(C(=O)Nc2csc([C@]34COC(C)(C)C[C@H]3CSC(N)=N4)n2)cn1 (single isomer, unassigned) [Example 21] |
| 14.8 | Cc1cc(OC(F)F)cnc1C(=O)Nc1csc([C@@]23COC(C)(C)C[C@@H]2CSC(N)=N3)n1 (single isomer, unassigned) [Example 25] |
| 0.314 | NC1=N[C@@]2(c3nc(NC(=O)c4ccc(OC(F)F)cn4)cs3)COC3(CC3)C[C@H]2CS1 (single isomer, unassigned) [Example 39, N-{2-[(4a′R,8a′R)-2′-amino-4a′,5′-dihydro-4′H-spiro[cyclopropane-1,6′-pyrano[3,4-d] [1,3]thiazin]-8a′(8′H)-yl]-1,3-thiazol-4-yl}-5-(difluoromethoxy)pyridine-2-carboxamide] |
| 0.088 | NC1=N[C@@]2(c3nc(NC(=O)c4ccc(Cl)cn4)cs3)COC3(CCC3)C[C@H]2CS1 [Example 6, N-{2-[(4a′R,8a′R)-2′-amino-4a′,5′-dihydro-4′H-spiro[cyclobutane-1,6′-pyrano[3,4-d][1,3]thiazin]-8a′(8′H)-yl]-1,3-thiazol-4-yl}-5-chloropyridine-2-carboxamide] |
| 0.041 | CC[C@@]1(C)C[C@H]2CSC(N)=N[C@@]2(c2nc(NC(=O)c3ccc(OC(F)F)cn3)cs2)CO1 [Example 8, N-{2-[(4aR,6S,8aR)-2-amino-6-ethyl-6-methyl-4,4a,5,6-tetrahydropyrano[3,4-d] [1,3]thiazin-8a(8H)-yl]-1,3-thiazol-4-yl}-5-(difluoromethoxy)pyridine-2-carboxamide] |
| 0.047 | Cc1cc(OC(F)F)cnc1C(=O)Nc1csc([C@]23COC(C)(C)C[C@H]2CSC(N)=N3)n1 [Example 24, N-{2-[(4aR,8aR)-2-amino-6,6-dimethyl-4,4a,5,6-tetrahydropyrano[3,4-d][1,3]thiazin-8a(8H)-yl]-1,3-thiazol-4-yl}-5-(difluoromethoxy)-3-methylpyridine-2-carboxamide] |
| 0.406 | CC[C@@]1(C)C[C@@H]2CSC(N)=N[C@]2(c2nc(NC(=O)c3ccc(OC(F)F)cn3)cs2)CO1 [Example 26, N-{2-[(4aS,6S,8aS)-2-amino-6-ethyl-6-methyl-4,4a,5,6-tetrahydropyrano[3,4-d][1,3]thiazin-8a(8H)-yl]-1,3-thiazol-4-yl}-5-(difluoromethoxy)pyridine-2-carboxamide] |
| 14.8 | CC[C@]1(C)C[C@@H]2CSC(N)=N[C@]2(c2nc(NC(=O)c3ccc(OC(F)F)cn3)cs2)CO1 [Example 28, N-{2-[(4aS,6R,8aS)-2-amino-6-ethyl-6-methyl-4,4a,5,6-tetrahydropyrano[3,4-d][1,3]thiazin-8a(8H)-yl]-1,3-thiazol-4-yl}-5-(difluoromethoxy)pyridine-2-carboxamide] |

From patent US10112958B2, “N-[2-(2-amino-6,6-disubstituted-4,4a,5,6-tetrahydropyrano[3,4-d][1,3]thiazin-8a(8H)-YL)-1,3-thiazol-4-YL] amides” (Pfizer Inc., priority 2015, dated 2018)
